From patent publication US12428406B2 (PMV Pharmaceuticals, Inc., priority 2019, dated 2025)

What follows are compounds tested against T1, p53 Y220C (Homo sapiens, UniProt P04637, Y220C) (assay: In vitro DNA binding activity assay (HTRF / TR-FRET): stabilization of p53 Y220C and increase of its DNA binding activity). Settings: recombinant His-tagged p53 Y220C DNA binding domain (aa 94-312), biotin-labeled consensus DNA, incubated at 27° C. or 29° C. for 60 min.
T1 construct: The recombinant protein was a truncation mutant containing only amino acids 94-312 of p53; made in house; host or cells: E. coli
T1 sequence (P04637 94-312, change not shown): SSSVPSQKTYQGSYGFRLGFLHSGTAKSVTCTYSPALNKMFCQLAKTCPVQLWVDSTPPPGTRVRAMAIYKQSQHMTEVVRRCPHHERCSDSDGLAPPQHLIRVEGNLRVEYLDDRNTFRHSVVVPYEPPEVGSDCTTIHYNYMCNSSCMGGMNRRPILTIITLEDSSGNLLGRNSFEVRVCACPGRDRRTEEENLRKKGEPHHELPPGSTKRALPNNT
Format: biochemical
How it was run: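 E. coli His-p53 Y220C + biotin consensus DNA; anti-His-APC/SA-Eu TR-FRET. SC150 vs no-compound.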

Compound	SC150 (concentration of the compound required to increase the DNA binding activity by 50%)
COc1cc(S(C)(=O)=O)ccc1NCC#Cc1cc2c(N[C@H]3CC[C@H](N4CCC5(CC4)COC5)CC3)cccc2n1CC(F)(F)F [Compound 313A, 2-{3-[(4-methane-sulfonyl-2-methoxy-phenyl)amino]prop-1-yn-1-yl}-N-[(1R,4R)-4-{2-oxa-7-azaspiro[3.5]nonan-7-yl}cyclohexyl]-1-(2,2,2-trifluoroethyl)-1H-indol-4-amine]	+ (+ = 0 μM ≤ SC150 < 0.05 μM)
CNC(=O)c1ccc(NCC#Cc2cc3c(N[C@H]4CC[C@H](N5CCOCC5)CC4)cccc3n2CCF)c(OC)c1 [Compound 175A, 4-({3-[1-(2-fluoro-ethyl)-4-{[(1R,4R)-4-(morpholin-4-yl)cyclohexyl]amino}-1H-indol-2-yl]prop-2-yn-1-yl}amino)-3-methoxy-N-methylbenzamide]	++ (++ = 0.05 μM ≤ SC150 < 0.1 μM)
CS(=O)(=O)c1ccc(NCC#Cc2cc3c(N[C@H]4CC[C@H](N5CC6(COC6)C5)CC4)cccc3n2CC(F)(F)F)c(Cl)c1 [Compound 289A, 2-{3-[(2-chloro-4-methanesulfonyl-phenyl)amino]prop-1-yn-1-yl}-N-[(1R,4R)-4-{2-oxa-6-azaspiro[3.3]heptan-6-yl}cyclo-hexyl]-1-(2,2,2-trifluo-roethyl)-1H-indol-4-amine]	+ (+ = 0 μM ≤ SC150 < 0.05 μM)
CS(=O)(=O)c1ccc(NCC#Cc2cc3c(N[C@H]4CC[C@H](N5CCC6(CC5)COC6)CC4)cccc3n2CC(F)(F)F)c(OCC#N)c1 [Compound 389A, 2-(5-methanesulfonyl-2-{[3-(4-{[(1R,4R)-4-{2-oxa-7-azaspiro[3.5]nonan-7-yl}cyclohexyl]amino}-1-(2,2,2-trifluoroethyl)-1H-indol-2-yl)prop-2-yn-1-yl]amino}phenoxy)acetonitrile]	+ (+ = 0 μM ≤ SC150 < 0.05 μM)
CS(=O)(=O)c1ccc(NCC#Cc2cc3c(N[C@H]4CC[C@H](N5CCOCC5)CC4)cccc3n2CC(F)(F)F)c(OCC#N)c1 [Compound 185A, 2-(5-methanesulfonyl-2-{[3-(4-{[(1R,4R)-4-(morpholin-4-yl)cyclohexyl]amino}-1-(2,2,2-trifluoroethyl)-1H-indol-2-yl)prop-2-yn-1-yl]amino}phenoxy)acetonitrile]	+ (+ = 0 μM ≤ SC150 < 0.05 μM)
COCCOc1cc(S(C)(=O)=O)ccc1NCC#Cc1cc2c(N[C@H]3CC[C@H](N4CC5(COC5)C4)CC3)cccc2n1CC(F)(F)F [Compound 220A, 2-(3-{[4-methane-sulfonyl-2-(2-methoxyethoxy)phenyl]amino}prop-1-yn-1-yl)-N-[(1R,4R)-4-{2-oxa-6-azaspiro[3.3]heptan-6-yl}cyclohexyl]-1-(2,2,2-trifluoroethyl)-1H-indol-4-amine]	+ (+ = 0 μM ≤ SC150 < 0.05 μM)
CN(C)c1cc(S(C)(=O)=O)ccc1OCC#Cc1cc2c(N[C@H]3CC[C@H](N(C)C)CC3)cccc2n1CC(F)(F)F [Compound 112A, (1R,4R)-N^4-(2-{3-[2-(dimethylamino)-4-methanesulfonyl-phenoxy]prop-1-yn-1-yl}-1-(2,2,2-trifluoroethyl)-1H-indol-4-yl)-N^1,N^1-dimethylcyclohexane-1,4-diamine]	+++ (+++ = 0.1 μM ≤ SC150 < 0.2 μM)
COc1cc(C(F)(F)F)ccc1NCC#Cc1cc2c(N[C@H]3CC[C@H](N(C)C)CC3)cccc2n1CC(F)(F)F [Compound 134A, (1R,4R)—N^4-[2-(3-{[2-methoxy-4-(trifluoromethyl)phenyl]amino}prop-1-yn-1-yl)-1-(2,2,2-trifluoroethyl)-1H-indol-4-yl]-N^1,N^1-dimethylcyclohexane-1,4-diamine]	+ (+ = 0 μM ≤ SC150 < 0.05 μM)
COc1cc(S(N)(=O)=O)ccc1NCC#Cc1cc2c(N[C@H]3CC[C@H](N4CCCC4)CC3)cccc2n1CC(F)(F)F [Compound 422A, 3-methoxy-4-{[3-(4-{[(1R,4R)-4-(pyrrolidin-1-yl)cyclohexyl]amino}-1-(2,2,2-trifluoroethyl)-1H-indol-2-yl)prop-2-yn-1-yl]amino}benzene-1-sulfonamide]	+ (+ = 0 μM ≤ SC150 < 0.05 μM)

Now from value to compound:

SC150 (concentration of the compound required to increase the DNA binding activity by 50%)	Compound
+ (+ = 0 μM ≤ SC150 < 0.05 μM)	COc1cc(S(=O)(=O)N2CCN(C)CC2)ccc1NCC#Cc1cc2c(NC3CCS(=O)(=O)CC3)cccc2n1CC(F)(F)F [Compound 1048A, 4-({2-[3-({2-methoxy-4-[(4-methylpiperazin-1-yl)sulfonyl]phenyl}amino)prop-1-yn-1-yl]-1-(2,2,2-trifluoroethyl)-1H-indol-4-yl}amino)-1λ^6-thiane-1,1-dione]
+ (+ = 0 μM ≤ SC150 < 0.05 μM)	COc1cc(S(=O)(=O)NC2CCOCC2)ccc1NCC#Cc1cc2c(NC3CCOCC3)cccc2n1CC(F)(F)F [Compound 993A, 3-methoxy-N-(oxan-4-yl)-4-[(3-{4-[(oxan-4-yl)amino]-1-(2,2,2-trifluoroethyl)-1H-indol-2-yl}prop-2-yn-1-yl)amino]benzene-1-sulfonamide]
+ (+ = 0 μM ≤ SC150 < 0.05 μM)	COc1cc(C(=O)NC[C@@H](C)O)ccc1NCC#Cc1cc2c(N[C@@H]3CCN(C)C[C@@H]3F)cccc2n1CC(F)(F)F [Compound 957A, 4-((3-(4-(((3S,4R)-3-fluoro-1-methylpiperidin-4-yl)amino)-1-(2,2,2-trifluoroethyl)-1H-indol-2-yl)prop-2-yn-1-yl)amino)-N—((R)-2-hydroxypropyl)-3-methoxybenzamide]
+ (+ = 0 μM ≤ SC150 < 0.05 μM)	COc1cc(C(=O)N2CC3(CCOCC3)C2)ccc1NCC#Cc1cc2c(N[C@@H]3CCN(C)C[C@@H]3F)cccc2n1CC(F)(F)F [Compound 907A, N-[(3S,4R)-3-fluoro-1-methylpiperidin-4-yl]-2-{3-[(2-methoxy-4-{7-oxa-2-azaspiro[3.5]nonane-2-carbonyl}phenyl)amino]prop-1-yn-1-yl}-1-(2,2,2-trifluoroethyl)-1H-indol-4-amine]
+ (+ = 0 μM ≤ SC150 < 0.05 μM)	COc1cc(S(=O)(=O)N(C)CCO)ccc1NCC#Cc1cc2c(NC3CCOCC3)cccc2n1CC(F)(F)F [Compound 996A, N-(2-hydroxyethyl)-3-methoxy-N-methyl-4-[(3-{4-[(oxan-4-yl)amino]-1-(2,2,2-trifluoroethyl)-1H-indol-2-yl}prop-2-yn-1-yl)amino]benzene-1-sulfonamide]
+++ (+++ = 0.1 μM ≤ SC150 < 0.2 μM)	COc1cc(S(C)(=O)=O)ccc1NCC#Cc1cc2c(NC3CCN(C)CC3)cccc2n1CC1CO1 (stereo not shown) [Compound 517A, 2-{3-[(4-methanesulfonyl-2-methoxyphenyl)amino]prop-1-yn-1-yl}-N-(1-methylpiperidin-4-yl)-1-[(oxiran-2-yl)methyl]-1H-indol-4-amine]
+ (+ = 0 μM ≤ SC150 < 0.05 μM)	COc1cc(S(N)(=O)=O)ccc1NCC#Cc1cc2c(NC3CCN(C(C)C)CC3)cccc2n1CC(F)(F)F [Compound 543A, 3-methoxy-4-{[3-(4-{[1-(propan-2-yl)piperidin-4-yl]amino}-1-(2,2,2-trifluoroethyl)-1H-indol-2-yl)prop-2-yn-1-yl]amino}benzene-1-sulfonamide]
+ (+ = 0 μM ≤ SC150 < 0.05 μM)	CNC(=O)c1ccc(NCC#Cc2cc3c(N[C@@H]4CCNC[C@@H]4F)cccc3n2CC(F)(F)F)c(OC)c1 [Compound 857A]
++ (++ = 0.05 μM ≤ SC150 < 0.1 μM)	COc1cc(NC2CCN(C)CC2)c2cc(C#CCNc3ccc(S(C)(=O)=O)cc3OC)n(CC(F)(F)F)c2c1 [Compound 487A, 2-{3-[(4-methanesulfonyl-2-methoxyphenyl)amino]prop-1-yn-1-yl}-6-methoxy-N-(1-methylpiperidin-4-yl)-1-(2,2,2-trifluoroethyl)-1H-indol-4-amine]
+ (+ = 0 μM ≤ SC150 < 0.05 μM)	COc1cc(S(C)(=O)=O)ccc1NCC#Cc1cc2c(NC3CCN([C@H]4CCOC4)CC3)cccc2n1CC(F)(F)F [Compound 723A, 2-{3-[(4-methanesulfonyl-2-methoxyphenyl)amino]prop-1-yn-1-yl}-N-{1-[(3S)-oxolan-3-yl]piperidin-4-yl}-1-(2,2,2-trifluoroethyl)-1H-indol-4-amine]
+ (+ = 0 μM ≤ SC150 < 0.05 μM)	COc1cc(S(=O)(=O)N2CCOCC2)ccc1NCC#Cc1cc2c(NC3CCOCC3)cccc2n1CC(F)(F)F [Compound 1002A, 2-(3-{[2-methoxy-4-(morpholine-4-sulfonyl)phenyl]amino}prop-1-yn-1-yl)-N-(oxan-4-yl)-1-(2,2,2-trifluoroethyl)-1H-indol-4-amine]
++ (++ = 0.05 μM ≤ SC150 < 0.1 μM)	COCC(O)CN1CCC(Nc2cccc3c2cc(C#CCNc2ccc(S(C)(=O)=O)cc2OC)n3CC2CC2(F)F)CC1 (stereo not shown) [Compound 704A, 1-[4-({1-[(2,2-difluorocyclopropyl)methyl]-2-{3-[(4-methanesulfonyl-2-methoxyphenyl)amino]prop-1-yn-1-yl}-1H-indol-4-yl}amino)piperidin-1-yl]-3-methoxypropan-2-ol]
+ (+ = 0 μM ≤ SC150 < 0.05 μM)	COc1cc(S(=O)(=O)N(CCO)CCO)ccc1NCC#Cc1cc2c(NC3CCN(CC(C)O)CC3)cccc2n1CC(F)(F)F (stereo not shown) [Compound 595A, N,N-bis(2-hydroxyethyl)-4-{[3-(4-{[1-(2-hydroxypropyl)piperidin-4-yl]amino}-1-(2,2,2-trifluoroethyl)-1H-indol-2-yl)prop-2-yn-1-yl]amino}-3-methoxybenzene-1-sulfonamide]
